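How tested: cells in 96-well plates exposed to compound for 48 hours at five concentrations. Here, GI50 denotes the concentration required for 50% inhibition of growth.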 The source made the active and inactive calls. Rule as the data show it: active = GI50 up to about 1.1 µM and inactive = higher.
Experiments:
Assay in all cases: growth of human tumour cells (NCI), 48 h
OVCAR-3 = tested on: OVCAR-3
SF-539 = tested on: SF-539
KM-20L2 = tested on: KM-20L2
HCC 2998 = tested on: HCC 2998
HL-60 = tested on: HL-60
XF498 = tested on: XF498
HOP-92 = tested on: HOP-92
SN12C = tested on: SN12C
M19-MEL = tested on: M19-MEL
SK-MEL-28 = tested on: SK-MEL-28
SF-295 = tested on: SF-295
RPMI-8226 = tested on: RPMI-8226
786-0 = tested on: 786-0
DLD-1 = tested on: DLD-1
KM12 = tested on: KM12
SF-268 = tested on: SF-268
SK-MEL-2 = tested on: SK-MEL-2
SK-OV-3 = tested on: SK-OV-3
UACC-257 = tested on: UACC-257
MOLT-4 = tested on: MOLT-4
SNB-75 = tested on: SNB-75
RXF 631 = tested on: RXF 631
TK-10 = tested on: TK-10
LXFL 529 = tested on: LXFL 529
HOP-62 = tested on: HOP-62
SK-MEL-5 = tested on: SK-MEL-5
NCI-H226 = tested on: NCI-H226
NCI-H23 = tested on: NCI-H23
SNB-78 = tested on: SNB-78
UO-31 = tested on: UO-31
RXF 393 = tested on: RXF 393
A549 = tested on: A549
IGROV-1 = tested on: IGROV-1
EKVX = tested on: EKVX
HT-29 = tested on: HT-29
SR = tested on: SR
LOX IMVI = tested on: LOX IMVI
UACC-62 = tested on: UACC-62
CCRF-CEM = tested on: CCRF-CEM
OVCAR-8 = tested on: OVCAR-8
Malme-3M = tested on: Malme-3M
CAKI-1 = tested on: CAKI-1
ACHN = tested on: ACHN
HCT-15 = tested on: HCT-15
COLO 205 = tested on: COLO 205
SNB-19 = tested on: SNB-19
NCI-H522 = tested on: NCI-H522
OVCAR-5 = tested on: OVCAR-5
OVCAR-4 = tested on: OVCAR-4
HOP-18 = tested on: HOP-18
SW-620 = tested on: SW-620
NCI-H460 = tested on: NCI-H460
DMS-273 = tested on: DMS-273
M14 = tested on: M14
U-251 = tested on: U-251
HCT-116 = tested on: HCT-116
K562 = tested on: K562
DMS-114 = tested on: DMS-114
A498 = tested on: A498

Measured: GI50

COc1ccc(/C=N/N=C(\N)NO)cc1F
18.6 µM: HCT-15
inactive: OVCAR-3 53 µM | SF-539 21.9 µM | KM-20L2 9.02 µM | HCC 2998 11.4 µM | HL-60 27.4 µM | XF498 25.3 µM | HOP-92 22.2 µM | SN12C 26.7 µM | M19-MEL 21.6 µM | SK-MEL-28 > 100 µM | SF-295 23 µM | RPMI-8226 28.4 µM | 786-0 13.7 µM | DLD-1 53.7 µM | KM12 29.4 µM | SF-268 17.1 µM | SK-MEL-2 13.3 µM | SK-OV-3 24.5 µM | UACC-257 46.6 µM | MOLT-4 31.1 µM | SNB-75 27.4 µM | RXF 631 14.5 µM | TK-10 43 µM | LXFL 529 11.6 µM | HOP-62 20.5 µM | SK-MEL-5 5.02 µM | NCI-H226 5.42 µM | NCI-H23 29.9 µM | SNB-78 97.3 µM | UO-31 14 µM | RXF 393 38.2 µM | A549 14.3 µM | IGROV-1 31.3 µM | EKVX 8.13 µM | HT-29 12.9 µM | SR 15.9 µM | LOX IMVI 10.4 µM | UACC-62 12.9 µM | CCRF-CEM 33.7 µM | OVCAR-8 25.9 µM | Malme-3M 31 µM | CAKI-1 14.5 µM | ACHN 10.1 µM | COLO 205 10.5 µM | SNB-19 37.6 µM | NCI-H522 22.1 µM | OVCAR-5 13.9 µM | OVCAR-4 7.45 µM | HOP-18 13.8 µM | SW-620 41.2 µM | NCI-H460 11.9 µM | DMS-273 17.5 µM | M14 14.2 µM | U-251 25 µM | HCT-116 27 µM | K562 8 µM

CCOC(=O)/C(Br)=C1\OC(=O)c2ccccc2-c2ccccc21
inactive: OVCAR-3 37.4 µM | SF-539 25.1 µM | HCC 2998 49.2 µM | HL-60 13.3 µM | XF498 65.8 µM | HOP-92 24.3 µM | SN12C 37.4 µM | M19-MEL 51.1 µM | SK-MEL-28 61.4 µM | SF-295 36.5 µM | RPMI-8226 27.9 µM | 786-0 52.8 µM | DLD-1 91.6 µM | KM12 34.7 µM | SF-268 43.8 µM | SK-MEL-2 64 µM | SK-OV-3 34 µM | UACC-257 58.5 µM | MOLT-4 25.9 µM | SNB-75 26.4 µM | RXF 631 33.3 µM | TK-10 60.7 µM | LXFL 529 29.4 µM | HOP-62 24.2 µM | DMS-114 23.1 µM | SK-MEL-5 37.1 µM | NCI-H226 23.4 µM | NCI-H23 57.8 µM | SNB-78 29.6 µM | UO-31 38.7 µM | A549 40.3 µM | IGROV-1 63.5 µM | EKVX > 100 µM | HT-29 33.2 µM | SR 22 µM | LOX IMVI 36.8 µM | UACC-62 44.4 µM | CCRF-CEM 23.3 µM | OVCAR-8 49.8 µM | Malme-3M 47.2 µM | CAKI-1 54.3 µM | ACHN 52.6 µM | COLO 205 20.8 µM | NCI-H522 23 µM | OVCAR-5 > 100 µM | HOP-18 91.8 µM | SW-620 42.5 µM | DMS-273 41.4 µM | M14 40.4 µM | U-251 38.5 µM | HCT-116 43.3 µM | K562 21.1 µM
48.4 µM: HCT-15

Cc1nc2ccccc2c(=O)[nH]1
inactive: OVCAR-3 > 100 µM | SF-539 > 100 µM | KM-20L2 > 100 µM | HCC 2998 > 100 µM | HL-60 > 100 µM | XF498 > 100 µM | HOP-92 > 100 µM | SN12C > 100 µM | M19-MEL > 100 µM | SK-MEL-28 > 100 µM | SF-295 > 100 µM | RPMI-8226 > 100 µM | 786-0 > 100 µM | A498 > 100 µM | DLD-1 > 100 µM | KM12 > 100 µM | SF-268 > 100 µM | SK-MEL-2 > 100 µM | SK-OV-3 > 100 µM | UACC-257 > 100 µM | MOLT-4 > 100 µM | SNB-75 37.1 µM | RXF 631 > 100 µM | TK-10 > 100 µM | LXFL 529 > 100 µM | HOP-62 > 100 µM | SK-MEL-5 > 100 µM | NCI-H226 > 100 µM | NCI-H23 > 100 µM | SNB-78 > 100 µM | UO-31 > 100 µM | RXF 393 > 100 µM | A549 > 100 µM | IGROV-1 > 100 µM | EKVX > 100 µM | HT-29 > 100 µM | LOX IMVI > 100 µM | UACC-62 > 100 µM | CCRF-CEM > 100 µM | OVCAR-8 > 100 µM | Malme-3M > 100 µM | ACHN > 100 µM | COLO 205 > 100 µM | SNB-19 > 100 µM | NCI-H522 > 100 µM | OVCAR-5 > 100 µM | OVCAR-4 > 100 µM | HOP-18 > 100 µM | SW-620 > 100 µM | NCI-H460 > 100 µM | M14 > 100 µM | U-251 > 100 µM | HCT-116 > 100 µM | K562 > 100 µM
> 100 µM: HCT-15

Reference: ChEMBL document CHEMBL1201862, “PubChem BioAssay data set” (2004)
